Source: US20230339915A1 (Vertex Pharmaceuticals Incorporated, priority 2020, published 2023)

Key:
[1] = target: NL20 human bronchial epithelial cells expressing human Z-AAT (Homo sapiens (Human), UniProt P01009, E366K); assay: AAT Function Assay (MSD Assay NL20-SI Cell Line); type: cell-based; conditions: functionally active AAT (AAT-hNE complex, MSD) in supernatant of NL20 cells expressing human Z-AAT; read-out: NL20 Functional EC50
Procedure: A. AAT Function Assay (MSD Assay NL20-SI Cell Line)
Alpha-1 antitrypsin (AAT) is a SERpIN (serine protease inhibitor) that inactivates enzymes by binding to them covalently. This assay measured the amount of functionally active AAT in a sample in the presence of the disclosed Compounds 1-227 by determining the ability of AAT to form an irreversible complex with human neutrophil Elastase (hNE). In practice, the sample (cell supernatant, blood sample, or other) was incubated with excess hNE to allow AAT-Elastase complex to be formed with all functional AAT in the sample. This complex was then captured to a microplate coated with an anti-AAT antibody. The complex captured to the plate was detected with a labeled anti-Elastase antibody and quantitated using a set of AAT standards spanning the concentration range present in the sample. Meso Scale Discovery (MSD) plate reader, Sulfo-tag labeling, and microplates were used to provide high sensitivity and wide dynamic range.
Instrument(S): • Meso Sector S600 • Bravo • Washer dispenser • Multidrop Combi
Day 1 Cell Culture • 1. Harvest NL20 human bronchial epithelial cells expressing human Z-AAT in OptiMEM™ containing Pen/Strep (P/S) • 2. Seed at 16,000 cells/well in 30 μL (384 well plate) • 3. Centrifuge plates briefly up to speed (1200 rpm) and place into 37° C. incubator overnight
Day 2: Compound Addition and Coating Plates with Capture Antibody
Compound Addition: • 1. Dispense 40 μL of OptiMEM™ (P/S) with doxycycline (1:1000 stock=0.1 μM final) to each well of the compound plate using a multidrop Combi in hood • 2. Remove cell plate from incubator, flip/blot and take immediately to Bravo to transfer compounds • 3. Return plates to incubator overnight
Coat MSD Plates • 1. Dilute capture antibody (Polyclonal Goat anti-AAT) to 5 μg/mL (1:200) in PBS (no BSA). • 2. Dispense 25 μL of diluted capture antibody into all wells of MSD 384-well High Bind plate using the Multidrop equipped with a standard cassette. • 3. Incubate overnight at 4° C.
Prepare Blocker A (BSA) Solutions • 1. Prepare solution of 5% MSD Blocker A (BSA) following the manufacturer's instructions. • 2. Further dilute the 5% MSD Blocker A in PBS to 1% (Blocker A) as needed.
Block Plates • 1. Wash plate 1× with 50 μL Wash buffer (PBS+0.5% Tween 20), and adds 35 μL 5% Block A buffer to block non-specific binding on washer dispenser • 2. Rotate plates on shaker for 1 hour at 600 rpm
Prepare M-AA T Standards • 1. Dilute M-AAT stock to 1.6 μg/mL in 1% BSA Blocker A (Stock in −70° C.); then prepare 12×1:2 serial dilutions in 1% Blocker A • 2. The top starting final concentration on MSD plate is 320 ng/mL. These dilutions correspond to a final concentration of 320, 160, 80, 40, 20, 10, 5, 2.5, 1.25, 0.625, 0.312, 0.156 ng/mL.
Dilution Plate • 1. Add 80 μL of 1% Assay buffer to all wells except columns 1/24 (standards) with Multidrop Combi • 2. Add diluted standards to columns 1 and 24 • 3. Centrifuge dilution plates 1200 rpm briefly
Cell Plate • 1. Aspirate columns which will have the standards from the cell plates in the hood using 16-pin aspirator
Prepare Human Neutrophil Elastase (hNE) • 1. Prepare 1 μg/mL Human Neutrophil Elastase by diluting in 1% Blocker A. • a. Small 100 μg vial—add 1 mL PBS (100 μg/mL) • i. This can then be diluted 1:100 in 1% Assay Buffer for a final 1 μg/mL concentration
MSD—add hNE (20 μL/well) • 1. After the MSD plate has blocked for at least 1 hour, wash plate 1× with 50 μL Wash buffer (PBS+0.5% Tween 20) and then add 20 μL hNE to each well
Bravo—Cell Plate—Dilution Plate—MSD Plate
Using the Bravo aspirate 10 μL from the cell plate, transfer to the dilution plate (9-fold dilution) • 1. Mix 25 μL 3×, then aspirate 5 μL, transfer to MSD plate (5-fold dilution) • 2. Mix 10 μL 3×. Total dilution is 45 fold. • 3. Shake plates at 600 rpm for 1.5 hours
Add Functional Detection hNE Antibody • 1. Wash plate 1× with wash buffer • 2. […]

[2] = target: purified Z-AAT protein from human plasma (Homo sapiens (Human), UniProt P01009, E366K); assay: Biochemical Assay (Z-AAT Elastase Activity Assay); conditions: purified Z-AAT pre-incubated with compound 1 hour, then human neutrophil elastase and fluorescent substrate
purified Z-AAT protein from human plasma, sequence (P01009 25-418 E366K limits assumed): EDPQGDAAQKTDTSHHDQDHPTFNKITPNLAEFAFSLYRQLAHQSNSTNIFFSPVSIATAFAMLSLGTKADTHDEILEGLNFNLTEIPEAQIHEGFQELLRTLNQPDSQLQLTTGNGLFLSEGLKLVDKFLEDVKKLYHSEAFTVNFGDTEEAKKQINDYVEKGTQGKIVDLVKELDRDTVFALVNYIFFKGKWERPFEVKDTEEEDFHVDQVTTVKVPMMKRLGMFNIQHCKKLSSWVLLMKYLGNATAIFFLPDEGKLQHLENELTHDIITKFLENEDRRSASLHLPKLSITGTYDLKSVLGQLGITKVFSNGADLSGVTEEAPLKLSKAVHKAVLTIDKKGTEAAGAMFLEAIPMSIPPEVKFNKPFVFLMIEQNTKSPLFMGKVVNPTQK
From the text: B. Biochemical Assay (Z-AAT Elastase Activity Assay)
This assay measured the modulation of Compounds 1-227 on Z-AAT SERpIN activity using purified Z-AAT protein and purified human neutrophil elastase (hNE). Normally, when active monomeric Z-AAT encounters a protease such as trypsin or elastase, it forms a 1:1 covalent “suicide” complex in which both the AAT and protease are irreversibly inactivated. However, compounds binding to Z-AAT can lead to a decrease in SERpIN activity. In such cases, when a protease encounters compound-bound Z-AAT, the protease cleaves and inactivates Z-AAT without itself being inactivated.
Reagents • PBS buffer (media prep)+0.01% BRIJ35 detergent (Calbiochem catalog #203728) Opti-MEM media (Fisher 11058-021) • Human neutrophil elastase (hNE, Athens Research #16-14-051200) • 3.4 μM stock (0.1 mg/mL) prepared in 50 mM Na Acetate, pH 5.5, 150 mM NaCl, stored at −80° C. • Elastase substrate V (ES V, fluorescent peptide substrate MeOSuc-Ala-Ala-Pro-Val-AMC, Calbiochem catalog #324740) • 20 mM stock in DMSO, stored at −20° C. • Purified Z-AAT protein from human plasma; • 12.9 μM (0.67 mg/mL) Z-AAT Vertex Cambridge Sample 4942, from patient • #061-SSN, stored at −80 C
Plates • Corning 4511 (384 well black low volume)
Instruments • PerkinElmer® EnVision™
Pre-Incubation of Z-AAT with Compounds • 1. 7.5 μL of Z-AAT (20 nM) was incubated with compounds 1-227 in a GCA plate for 1 hour at room temperature
Addition of hNE • 1. 7.5 ul of HNE solution (3 nM in PBS+0.01% BRIJ35) added into GCA plate • 2. Incubate plate for 30 minutes to allow Z-AAT/HNE suicide complex formation.
Addition of Substrate and Read Plate on PE Envision • 1. 7.5 μL of substrate (300 μM solution of elastase substrate (ES V) in PBS+0.01% BRIJ35) dispensed per well into GCA plate • 2. Immediately read on Envision.

NL20 human bronchial epithelial cells expressing human Z-AAT, sequence (P01009 25-418 E366K limits assumed): as above

SMILES	EC50 [1] [nM]	IC50 [2] [µM]
CC(C)c1c([C@H]2CC3(C[C@H](C(=O)O)C3)C2)c2cc(O)ccc2n1-c1ccc(F)c(F)c1 (stereo partly shown) [Compound 57]	< 500	< 2
Cc1c(C2(C#N)CC2)c2cc(O)ccc2n1-c1ccc(F)cc1 [Compound 184, 1-(1-(4-fluorophenyl)-5-hydroxy-2-methyl-1H-indol-3-yl)cyclopropane-1-carbonitrile]	> 2000	> 5
O=C(O)[C@H]1CC2(C1)C[C@H](c1c(C3CCOCC3)n(-c3ccc(F)c(Cl)c3)c3ccc(O)cc31)C2 (stereo partly shown) [Compound 32]	< 500	> 5
O=C(O)[C@]1(C(F)(F)F)C[C@@H](c2c(C3CCOCC3)n(-c3ccc(F)c(Cl)c3)c3ccc(O)cc32)C1 [Compound 37]	500 to 2000	> 5
CCC(O)c1c(C#N)c2cc(O)ccc2n1-c1ccc(F)cc1 (racemic) [Compound 189, 1-(4-fluorophenyl)-5-hydroxy-2-(1-hydroxypropyl)indole-3-carbonitrile]	> 2000	> 30
CC(C)c1c([C@H]2C[C@@H](C(=O)O)C2)c2cc(O)ccc2n1-c1ccc(F)c(F)c1 [Compound 142, cis-3-(1-(3,4-difluorophenyl)-5-hydroxy-2-isopropyl-1H-indol-3-yl)cyclobutane-1-carboxylic acid]	> 2000	> 30
N#Cc1c(C2CCNCC2)n(-c2ccc(F)cc2)c2ccc(O)cc12 [Compound 200]	> 2000	> 30
Cc1cc(-n2c(C3CCOCC3)c(CC3CC(C(=O)O)C3)c3cc(O)ccc32)ccc1F (stereo not shown) [Compound 25]	500 to 2000	> 30
CCCn1c(C(C)(C)C)c(C#N)c2cc(O)ccc21 [Compound 205, 2-(tert-butyl)-5-hydroxy-1-propyl-1H-indole-3-carbonitrile]	> 2000	> 30
Cc1cc(-n2c(C(C)C)c(CCC(=O)O)c3cc(O)c(F)cc32)ccc1F [Compound 163, 3-(6-fluoro-1-(4-fluoro-3-methylphenyl)-5-hydroxy-2-isopropyl-1H-indol-3-yl)propanoic acid]	< 500	> 30
CO[C@]1(C(=O)O)C[C@H](c2c(C(C)C)n(-c3ccc(F)c(C)c3)c3ccc(O)cc32)C1 [Compound 66]	500 to 2000	> 30
Cc1c(C(C)C#N)c2cc(O)ccc2n1-c1ccc(F)cc1 (stereo not shown) [Compound 183, 2-(1-(4-fluorophenyl)-5-hydroxy-2-methyl-1H-indol-3-yl)propanenitrile]	> 2000	–
Cc1cc(-n2c(C3CCOCC3)c([C@H]3C[C@](C)(C(=O)O)C3)c3cc(O)ccc32)ccc1F [Compound 99]	500 to 2000	> 5
Cc1cc(-n2c(C3CCOCC3)c(C3CCCC(C(=O)O)C3)c3cc(O)ccc32)ccc1F (stereo not shown) [Compound 3]	500 to 2000	> 30
Cc1cc(-n2c(C(C)C)c([C@H]3C[C@@H](c4n[nH]c(=O)o4)C3)c3cc(O)ccc32)ccc1F [Compound 222, cis-5-[3-[1-(4-fluoro-3-methyl-phenyl)-5-hydroxy-2-isopropyl-indol-3-yl]cyclobutyl]-3H-1,3,4-oxadiazol-2-one]	> 2000	–
CC(C)(CCc1c(C2CCOCC2)n(-c2ccc(F)c(Cl)c2)c2ccc(O)cc12)C(=O)O [Compound 29]	500 to 2000	> 30
Cc1cc(-n2c(C3CCOCC3)c([C@H]3CC4(C[C@H](C(=O)O)C4)C3)c3cc(O)ccc32)ccc1F (stereo partly shown) [Compound 11]	< 500	> 30
N#Cc1c(C2=S(N)(=O)CCC2)n(-c2ccc(F)cc2)c2ccc(O)cc12 (stereo not shown) [Compound 207]	> 2000	> 30
Cc1cc(-n2c(C(C)C)c([C@H]3C[C@@H](C(=O)O)C3)c3c(F)c(O)ccc32)ccc1F [Compound 90]	500 to 2000	> 5
O=C(O)C1CC2(C1)CC(c1c(C3CCOCC3)n(-c3ccccc3)c3ccc(O)cc13)C2 (stereo not shown) [Compound 54]	> 2000	> 30
Cc1cc(-n2c(C3CCOCC3)c([C@H]3C[C@](CF)(C(=O)O)C3)c3cc(O)ccc32)ccc1F [Compound 108]	500 to 2000	> 5
C[C@]1(C(=O)O)C[C@@H](c2c(C3CCOCC3)n(-c3ccccc3)c3ccc(O)cc32)C1 [Compound 52]	> 2000	> 30
Cc1cc(-n2c(C3CCOCC3)c([C@H]3CC[C@H](C(=O)O)CC3)c3cc(O)ccc32)ccc1F [Compound 1, trans-4-(1-(4-fluoro-3-methylphenyl)-5-hydroxy-2-(tetrahydro-2H-pyran-4-yl)-1H-indol-3-yl)cyclohexane-1-carboxylic acid]	–	> 30
Cc1cc(-n2c(C(C)C)c(C3CC3(C)C(=O)O)c3cc(O)ccc32)ccc1F (stereo not shown) [Compound 130]	500 to 2000	–
Cc1cc(-n2c(C(C)C)c([C@H]3C[C@H](c4n[nH]c(=O)o4)C3)c3cc(O)ccc32)ccc1F [Compound 221, Trans-5-[3-[1-(4-fluoro-3-methyl-phenyl)-5-hydroxy-2-isopropyl-indol-3-yl]cyclobutyl]-3H-1,3,4-oxadiazol-2-one]	> 2000	–
Cc1c(C#N)c2cc(O)ccc2n1-c1ccc(F)cc1 [Compound 182, 1-(4-fluorophenyl)-5-hydroxy-2-methyl-1H-indole-3-carbonitrile]	> 2000	–
Cc1cc(-n2c(C(C)C)c(-c3ccc(C(=O)O)cc3)c3cc(O)ccc32)ccc1F [Compound 167]	< 500	–
Cc1cc(-n2c(C(C)C)c([C@H]3C[C@@H]3C(=O)O)c3cc(O)c(F)cc32)ccc1F [Compound 129]	500 to 2000	–
Cc1cc(-n2c(C(C)C)c(-c3ccc(C(=O)O)cc3C)c3cc(O)ccc32)ccc1F [Compound 170]	500 to 2000	–
